Consider ten compounds from patent publication US12202843B2, “Muscarinic receptor agonists” (Nxera Pharma UK Limited, priority 2014, dated 2025).

Common to all, as to format: cell-based
The target of test [1] is T1, human muscarinic M1 receptor (Homo sapiens, UniProt P11229).
T1 sequence (P11229 1-460): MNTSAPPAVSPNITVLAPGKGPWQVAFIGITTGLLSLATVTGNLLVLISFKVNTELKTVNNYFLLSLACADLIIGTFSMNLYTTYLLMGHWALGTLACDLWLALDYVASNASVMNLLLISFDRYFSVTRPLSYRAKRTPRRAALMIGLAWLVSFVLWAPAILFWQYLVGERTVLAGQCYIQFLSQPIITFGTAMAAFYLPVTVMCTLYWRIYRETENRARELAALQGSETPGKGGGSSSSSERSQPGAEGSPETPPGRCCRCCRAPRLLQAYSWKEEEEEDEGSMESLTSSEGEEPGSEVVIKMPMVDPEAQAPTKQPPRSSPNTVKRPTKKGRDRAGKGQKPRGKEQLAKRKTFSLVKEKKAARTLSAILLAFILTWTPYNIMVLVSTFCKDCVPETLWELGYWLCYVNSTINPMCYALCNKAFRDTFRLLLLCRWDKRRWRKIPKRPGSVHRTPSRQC
The experiment in a line: Alphascreen Surefire phospho-ERK1/2 functional assay, M1. To be noted: for EC50: CHO cells stably expressing human M1, read-out: pEC50 M1 (converted); for % Emax cf. ACh, M1: CHO cells stably expressing human M1, relative to ACh. Background: Bead proximity is the source of the signal in Alpha formats.

The target in test [2] is T2, human muscarinic M2 receptor (Homo sapiens, UniProt P08172).
T2 sequence (P08172 1-466): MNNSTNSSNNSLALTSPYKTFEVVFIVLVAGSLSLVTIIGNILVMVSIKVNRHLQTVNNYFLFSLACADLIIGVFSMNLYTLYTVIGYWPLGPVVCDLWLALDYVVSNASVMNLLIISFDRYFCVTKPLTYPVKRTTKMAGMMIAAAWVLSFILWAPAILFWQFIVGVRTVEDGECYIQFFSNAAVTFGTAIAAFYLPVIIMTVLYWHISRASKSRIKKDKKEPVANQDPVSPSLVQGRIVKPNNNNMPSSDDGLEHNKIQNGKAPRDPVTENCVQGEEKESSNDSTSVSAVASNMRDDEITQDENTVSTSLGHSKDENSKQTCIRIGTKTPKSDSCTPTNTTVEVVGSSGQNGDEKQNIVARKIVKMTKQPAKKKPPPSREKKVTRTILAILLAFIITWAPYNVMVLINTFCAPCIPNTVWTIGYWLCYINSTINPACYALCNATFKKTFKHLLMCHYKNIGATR
Description: Alphascreen Surefire phospho-ERK1/2 functional assay, M2. To be noted: for EC50: CHO cells stably expressing human M2, read-out: pEC50 M2 (converted); for % Emax cf. ACh, M2: CHO cells stably expressing human M2, relative to ACh; for Emax: CHO, read-out: % Emax cf. ACh, M2, CHO cells stably expressing human M2, relative to ACh. As to the method: (§1) ERK1/2 phosphorylation is a downstream consequence of both Gq/11 and Gi/o protein coupled receptor activation, making it highly suitable for the assessment of M1, M3 (Gq/11 coupled) and M2, M4 receptors (Gi/o coupled), rather than using different assay formats for different receptor subtypes. CHO cells stably expressing the human muscarinic M1, M2, M3 or M4 receptor were plated (25K/well) onto 96-well tissue culture plates in MEM-alpha+10% dialysed FBS. Once adhered, cells were serum-starved overnight. Agonist stimulation was performed by the addition of 5 μL agonist to the cells for 5 min (37° C.). Media was removed and 50 μL of lysis buffer added. […] Plates were incubated for 2 h with gentle agitation in the dark and then read on a PHERAstar plate reader.
(§2) pEC50 and Emax figures were calculated from the resulting data for each receptor subtype.

Test [3] addresses T3, human muscarinic M3 receptor (Homo sapiens, UniProt P20309).
T3 construct: expressed in transfected cells
The experiment in a line: Alphascreen Surefire phospho-ERK1/2 functional assay, M3. To be noted: for EC50: CHO cells stably expressing human M3, read-out: pEC50 M3 (converted); for % Emax cf. ACh, M3: CHO cells stably expressing human M3, relative to ACh; for Emax: CHO, read-out: % Emax cf. ACh, M3, CHO cells stably expressing human M3, relative to ACh. As to the method:
as §1, §2

For test [4], the target named is T4, human muscarinic M4 receptor (Homo sapiens, UniProt P08173).
T4 construct: expressed in transfected cells
T4 sequence (P08173 1-479): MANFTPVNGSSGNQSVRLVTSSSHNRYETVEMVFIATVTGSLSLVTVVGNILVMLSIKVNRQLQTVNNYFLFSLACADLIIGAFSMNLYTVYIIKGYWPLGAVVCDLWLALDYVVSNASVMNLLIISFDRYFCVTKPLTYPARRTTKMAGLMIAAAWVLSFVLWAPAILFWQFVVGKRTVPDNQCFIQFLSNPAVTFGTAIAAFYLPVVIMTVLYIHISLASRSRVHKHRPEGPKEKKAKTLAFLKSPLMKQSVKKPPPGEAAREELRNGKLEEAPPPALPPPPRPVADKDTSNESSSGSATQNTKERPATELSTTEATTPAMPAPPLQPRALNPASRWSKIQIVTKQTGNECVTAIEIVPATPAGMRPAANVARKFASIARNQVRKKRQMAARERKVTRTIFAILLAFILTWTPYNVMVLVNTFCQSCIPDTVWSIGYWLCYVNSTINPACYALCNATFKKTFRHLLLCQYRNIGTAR
The experiment in a line: Alphascreen Surefire phospho-ERK1/2 functional assay, M4. To be noted: for EC50: CHO cells stably expressing human M4, read-out: pEC50 M4 (converted); for % Emax cf. ACh, M4: CHO cells stably expressing human M4, relative to ACh; for Emax: CHO, read-out: % Emax cf. ACh, M4, CHO cells stably expressing human M4, relative to ACh.

T3 sequence (P20309 whole entry): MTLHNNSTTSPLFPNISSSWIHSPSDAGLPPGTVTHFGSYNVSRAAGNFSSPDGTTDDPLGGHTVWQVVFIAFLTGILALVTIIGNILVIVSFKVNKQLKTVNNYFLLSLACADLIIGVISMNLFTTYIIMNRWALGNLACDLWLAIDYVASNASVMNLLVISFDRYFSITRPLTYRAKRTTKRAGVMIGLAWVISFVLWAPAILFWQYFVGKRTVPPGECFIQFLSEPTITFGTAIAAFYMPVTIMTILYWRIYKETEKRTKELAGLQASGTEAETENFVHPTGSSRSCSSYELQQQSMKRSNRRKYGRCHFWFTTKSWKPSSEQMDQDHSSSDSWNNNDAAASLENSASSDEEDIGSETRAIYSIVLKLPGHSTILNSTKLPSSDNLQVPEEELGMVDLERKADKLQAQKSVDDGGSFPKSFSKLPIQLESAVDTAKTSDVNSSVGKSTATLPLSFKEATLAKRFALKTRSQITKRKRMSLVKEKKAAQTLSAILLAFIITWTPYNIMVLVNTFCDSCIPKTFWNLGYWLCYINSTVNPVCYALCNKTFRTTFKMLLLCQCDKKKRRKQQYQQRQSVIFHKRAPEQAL

With `CCOC(=O)N1CC2CCC1CC2N1CCC2(CC1)CNC(=O)C2` (single isomer, unassigned) [Example 3-1 Isomer 1, ethyl 5-(3-oxo-2,8-diazaspiro[4.5]dec-8-yl)-2-azabicyclo[2.2.2]octane-2-carboxylate], the EC50 in test [1] is 1.26 nM; in test [2], 10 nM; in test [3], more than 20000 nM; in test [4], 3.98 nM. The “% Emax cf. ACh, M1” value in test [1] (listed as 3-1 Isomer 1) was 111%. Also, the “% Emax cf. ACh, M2” value in test [2] (listed as 3-1 Isomer 1) is recorded as 63%. Also, the “% Emax cf. ACh, M3” value in test [3] (listed as 3-1 Isomer 1) was determined as 6%. Moreover, the “% Emax cf. ACh, M4” value in test [4] (listed as 3-1 Isomer 1) worked out at 61%.
As to `CCOC(=O)N1CC2CCC1CC2N1CCC2(CC1)CNC(=O)C2` (single isomer, unassigned) [Example 3-1 Isomer 2, ethyl 5-(3-oxo-2,8-diazaspiro[4.5]dec-8-yl)-2-azabicyclo[2.2.2]octane-2-carboxylate], the results for the EC50 in test [1], in test [2] and in test [4] were 63.1 nM, more than 20000 nM and 251 nM, respectively. In addition, the “% Emax cf. ACh, M1” value in test [1] (listed as 3-1 Isomer 2) is 94%. Further, the “% Emax cf. ACh, M2” value in test [2] (listed as 3-1 Isomer 2) was determined as 11%. Further, the “% Emax cf. ACh, M3” value in test [3] (listed as 3-1 Isomer 2) was 1%. Besides, the “% Emax cf. ACh, M4” value in test [4] (listed as 3-1 Isomer 2) came to 31%.
Take `CCOC(=O)N1CC2CCC1CC2N1CCC2(CC1)CNC(=O)C2` (single isomer, unassigned) [Example 3-1 Isomer 3, ethyl 5-(3-oxo-2,8-diazaspiro[4.5]dec-8-yl)-2-azabicyclo[2.2.2]octane-2-carboxylate]: the EC50 in test [1] is 39.8 nM; in test [2], more than 20000 nM; in test [4] it was 158 nM. Also, the “% Emax cf. ACh, M1” value in test [1] (listed as 3-1 Isomer 3) turned out to be 101%. In addition, in test [2] (listed as 3-1 Isomer 3), the “% Emax cf. ACh, M2” value is reported as 17%. Besides, the “% Emax cf. ACh, M3” value in test [3] (listed as 3-1 Isomer 3) came out at 16%. Further, the “% Emax cf. ACh, M4” value in test [4] (listed as 3-1 Isomer 3) amounted to 41%.
Usually Emax stands for the maximal effect, on the per cent scale that the assay sets. For the compound `CCOC(=O)N1C2CCCC1CC(N1CCC3(CC1)CNC(=O)C3)C2` (single isomer, unassigned) [Example 5-1 Isomer 1, ethyl 3-(3-oxo-2,8-diazaspiro[4.5]dec-8-yl)-9-azabicyclo[3.3.1]nonane-9-carboxylate], the EC50 in test [1] was 316 nM; in test [2], 7940 nM; in test [3], more than 20000 nM; in test [4], 251 nM. Further, the “% Emax cf. ACh, M1” value in test [1] (listed as 5-1 Isomer 1) worked out at 131%. Further, the Emax in test [2] was determined as 17%; in test [3] it was 8%. The “% Emax cf. ACh, M4” value in test [4] (listed as 5-1 Isomer 1) is 25%.
Take `CCOC(=O)N1C2CCCC1CC(N1CCC3(CC1)CNC(=O)C3)C2` (single isomer, unassigned) [Example 5-1 Isomer 2, ethyl 3-(3-oxo-2,8-diazaspiro[4.5]dec-8-yl)-9-azabicyclo[3.3.1]nonane-9-carboxylate]: the EC50 is 158 nM in test [1], more than 20000 nM in test [2] and more than 20000 nM in test [4]. Besides, the “% Emax cf. ACh, M1” value in test [1] (listed as 5-1 Isomer 2) stood at 77%. In addition, in test [2], the “% Emax cf. ACh, M2” value is reported as 14%. Moreover, the “% Emax cf. ACh, M3” value in test [3] came out at 6%. Moreover, the “% Emax cf. ACh, M4” value in test [4] (listed as 5-1 Isomer 2) is reported as 8%.
Regarding `C#CCOC(=O)N1C2CCCC1CC(N1CCC3(CC1)CNC(=O)C3)C2` (single isomer, unassigned) [Example 5-2 Isomer 1, prop-2-yn-1-yl 3-(3-oxo-2,8-diazaspiro[4.5]dec-8-yl)-9-azabicyclo[3.3.1]nonane-9-carboxylate], the EC50 in test [1] was 100 nM; in test [2], more than 20000 nM; in test [3], more than 20000 nM; in test [4], 79.4 nM. The “% Emax cf. ACh, M1” value in test [1] (listed as 5-2 Isomer 1) is 78%. Also, the Emax was determined as 3% in test [2] and 37% in test [4]. In test [3] (listed as 5-2 Isomer 1), the “% Emax cf. ACh, M3” value was determined as 9%.
As to `C#CCOC(=O)N1C2CCCC1CC(N1CCC3(CC1)CNC(=O)C3)C2` (single isomer, unassigned) [Example 5-2 Isomer 2, prop-2-yn-1-yl 3-(3-oxo-2,8-diazaspiro[4.5]dec-8-yl)-9-azabicyclo[3.3.1]nonane-9-carboxylate], the “% Emax cf. ACh, M1” value in test [1] (listed as 5-2 Isomer 2) is 48%. Further, the “% Emax cf. ACh, M2” value in test [2] is recorded as 3%. The “% Emax cf. ACh, M3” value in test [3] (listed as 5-2 Isomer 2) was found to be 4%. Moreover, in test [4], the EC50 was 63.1 nM and the “% Emax cf. ACh, M4” value came to 20%.
Regarding `CCOC(=O)N1C2CCCC1CC(N1CCC3(CC1)CNC(=O)O3)C2` (single isomer, unassigned) [Example 5-4 Isomer 2], the EC50 in test [1] was 158 nM; in test [2], more than 20000 nM; in test [3] it was more than 20000 nM. Also, the “% Emax cf. ACh, M1” value in test [1] came to 72%. In addition, the Emax turned out to be 2% in test [2] and 0% in test [3]. Moreover, the “% Emax cf. ACh, M4” value in test [4] (listed as 5-4 Isomer 2) was 8%.
Consider `COC(=O)N1CC2CC(N3CCC4(CC3)CNC(=O)C4)CC1C2` (single isomer, unassigned) [Example 6-1 Isomer 2], for which the EC50 is 20 nM in test [1], more than 20000 nM in test [2], more than 20000 nM in test [3] and 63.1 nM in test [4]. Moreover, the “% Emax cf. ACh, M1” value in test [1] (listed as 6-1 Isomer 2) was found to be 104%. For the same compound, the maximum response (Emax) in test [2] turned out to be 18%; in test [3], 5%. Moreover, the “% Emax cf. ACh, M4” value in test [4] amounted to 33%.
Take `CCOC(=O)N1CC2CC(N3CCC4(CC3)CNC(=O)C4)CC1C2` (single isomer, unassigned) [Example 6-2 Isomer 2]: the EC50 in test [1] is 2 nM; in test [2], 15.8 nM; in test [3] it was more than 20000 nM; in test [4], 3.98 nM. The Emax in test [1] (CHO, read-out: % Emax cf. ACh, M1, CHO cells stably expressing human M1, relative to ACh) stood at 118%; in test [2], 30%; in test [3], 18%; in test [4], 78%.
